Assay results taken from ChEMBL document CHEMBL5647690, “Inhibition of demethylases by GSK-J1/J4” (Nature, 2014).

How the values were obtained:
[1] = molecular target: T1, Lysine-specific demethylase 4A (Homo sapiens, UniProt O75164); assay: Inhibition of KDM4A (1 to 350 residues)(unknown origin) by Alphalisa assay
T1 sequence (O75164 whole entry): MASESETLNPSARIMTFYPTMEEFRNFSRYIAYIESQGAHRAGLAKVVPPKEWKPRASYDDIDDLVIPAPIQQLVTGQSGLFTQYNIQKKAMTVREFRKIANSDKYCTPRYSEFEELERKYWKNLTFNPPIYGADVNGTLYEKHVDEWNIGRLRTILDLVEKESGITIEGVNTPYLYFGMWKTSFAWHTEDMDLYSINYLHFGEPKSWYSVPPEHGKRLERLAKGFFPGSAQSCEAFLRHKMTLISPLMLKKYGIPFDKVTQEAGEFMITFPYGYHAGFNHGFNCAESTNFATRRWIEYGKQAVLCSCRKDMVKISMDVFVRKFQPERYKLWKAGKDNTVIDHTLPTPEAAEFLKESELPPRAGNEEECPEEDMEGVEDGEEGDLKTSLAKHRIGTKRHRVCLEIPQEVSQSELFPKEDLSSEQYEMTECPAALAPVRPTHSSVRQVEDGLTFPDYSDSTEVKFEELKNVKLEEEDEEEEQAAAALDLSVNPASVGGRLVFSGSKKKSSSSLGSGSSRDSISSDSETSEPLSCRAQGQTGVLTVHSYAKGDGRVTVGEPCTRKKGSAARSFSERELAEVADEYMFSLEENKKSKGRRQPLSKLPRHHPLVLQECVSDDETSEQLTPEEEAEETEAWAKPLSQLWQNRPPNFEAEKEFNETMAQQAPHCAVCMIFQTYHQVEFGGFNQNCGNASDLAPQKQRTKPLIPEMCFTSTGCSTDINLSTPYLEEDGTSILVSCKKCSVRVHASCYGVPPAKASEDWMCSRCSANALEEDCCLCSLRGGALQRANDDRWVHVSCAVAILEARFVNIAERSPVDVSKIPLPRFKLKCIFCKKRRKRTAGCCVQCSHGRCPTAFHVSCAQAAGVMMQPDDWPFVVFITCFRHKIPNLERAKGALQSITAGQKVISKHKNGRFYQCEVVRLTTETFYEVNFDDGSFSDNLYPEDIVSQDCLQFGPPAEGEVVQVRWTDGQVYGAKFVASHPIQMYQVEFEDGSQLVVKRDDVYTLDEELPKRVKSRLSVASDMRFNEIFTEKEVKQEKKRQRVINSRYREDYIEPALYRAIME

[2] = molecular target: Lysine-specific demethylase 6A (Homo sapiens, UniProt O15550); assay: Inhibition of KDM6A (919 to 1401 residues)(unknown origin) by Alphalisa assay
Lysine-specific demethylase 6A, sequence (O15550 whole entry, the tested form may be a part): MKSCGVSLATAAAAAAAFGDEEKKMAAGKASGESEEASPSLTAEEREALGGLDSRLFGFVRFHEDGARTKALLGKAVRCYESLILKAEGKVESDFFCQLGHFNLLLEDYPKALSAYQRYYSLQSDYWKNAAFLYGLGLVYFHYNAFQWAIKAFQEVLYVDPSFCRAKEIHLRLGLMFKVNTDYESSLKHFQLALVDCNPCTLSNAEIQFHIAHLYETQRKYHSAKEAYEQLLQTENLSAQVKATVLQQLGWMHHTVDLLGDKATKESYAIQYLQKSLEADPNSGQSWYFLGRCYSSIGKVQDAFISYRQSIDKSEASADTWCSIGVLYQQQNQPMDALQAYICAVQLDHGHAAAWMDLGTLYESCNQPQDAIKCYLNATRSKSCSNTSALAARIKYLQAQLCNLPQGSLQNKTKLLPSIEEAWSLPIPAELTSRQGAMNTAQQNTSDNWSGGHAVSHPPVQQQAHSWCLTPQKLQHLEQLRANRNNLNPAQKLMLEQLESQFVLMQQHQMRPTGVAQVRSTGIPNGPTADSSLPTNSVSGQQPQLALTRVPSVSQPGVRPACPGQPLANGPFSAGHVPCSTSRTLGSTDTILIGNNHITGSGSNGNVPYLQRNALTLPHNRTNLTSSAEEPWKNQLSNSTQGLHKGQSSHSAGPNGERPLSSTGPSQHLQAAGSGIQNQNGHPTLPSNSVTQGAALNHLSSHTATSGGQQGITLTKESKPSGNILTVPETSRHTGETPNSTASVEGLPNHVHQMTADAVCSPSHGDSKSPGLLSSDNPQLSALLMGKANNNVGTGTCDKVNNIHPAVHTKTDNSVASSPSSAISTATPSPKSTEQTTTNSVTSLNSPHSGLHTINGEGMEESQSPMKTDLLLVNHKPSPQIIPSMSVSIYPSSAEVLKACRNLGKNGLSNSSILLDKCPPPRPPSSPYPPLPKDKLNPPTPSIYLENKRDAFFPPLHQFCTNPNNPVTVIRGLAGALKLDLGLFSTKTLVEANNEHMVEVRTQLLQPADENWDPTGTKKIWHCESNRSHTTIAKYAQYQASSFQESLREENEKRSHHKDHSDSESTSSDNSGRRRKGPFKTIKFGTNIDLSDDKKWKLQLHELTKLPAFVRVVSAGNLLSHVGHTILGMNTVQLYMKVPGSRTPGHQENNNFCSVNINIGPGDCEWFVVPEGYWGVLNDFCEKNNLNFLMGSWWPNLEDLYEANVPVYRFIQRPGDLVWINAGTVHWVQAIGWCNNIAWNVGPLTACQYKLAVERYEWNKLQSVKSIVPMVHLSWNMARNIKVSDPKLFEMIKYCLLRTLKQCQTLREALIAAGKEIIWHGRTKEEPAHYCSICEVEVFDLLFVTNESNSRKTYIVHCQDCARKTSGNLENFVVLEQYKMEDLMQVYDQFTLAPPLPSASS

[3] = molecular target: Lysine-specific demethylase 5B (Homo sapiens, UniProt Q9UGL1); assay: Inhibition of KDM5B (1 to 809 residues)(unknown origin) by Alphalisa assay
Lysine-specific demethylase 5B, sequence (Q9UGL1 whole entry, the tested form may be a part): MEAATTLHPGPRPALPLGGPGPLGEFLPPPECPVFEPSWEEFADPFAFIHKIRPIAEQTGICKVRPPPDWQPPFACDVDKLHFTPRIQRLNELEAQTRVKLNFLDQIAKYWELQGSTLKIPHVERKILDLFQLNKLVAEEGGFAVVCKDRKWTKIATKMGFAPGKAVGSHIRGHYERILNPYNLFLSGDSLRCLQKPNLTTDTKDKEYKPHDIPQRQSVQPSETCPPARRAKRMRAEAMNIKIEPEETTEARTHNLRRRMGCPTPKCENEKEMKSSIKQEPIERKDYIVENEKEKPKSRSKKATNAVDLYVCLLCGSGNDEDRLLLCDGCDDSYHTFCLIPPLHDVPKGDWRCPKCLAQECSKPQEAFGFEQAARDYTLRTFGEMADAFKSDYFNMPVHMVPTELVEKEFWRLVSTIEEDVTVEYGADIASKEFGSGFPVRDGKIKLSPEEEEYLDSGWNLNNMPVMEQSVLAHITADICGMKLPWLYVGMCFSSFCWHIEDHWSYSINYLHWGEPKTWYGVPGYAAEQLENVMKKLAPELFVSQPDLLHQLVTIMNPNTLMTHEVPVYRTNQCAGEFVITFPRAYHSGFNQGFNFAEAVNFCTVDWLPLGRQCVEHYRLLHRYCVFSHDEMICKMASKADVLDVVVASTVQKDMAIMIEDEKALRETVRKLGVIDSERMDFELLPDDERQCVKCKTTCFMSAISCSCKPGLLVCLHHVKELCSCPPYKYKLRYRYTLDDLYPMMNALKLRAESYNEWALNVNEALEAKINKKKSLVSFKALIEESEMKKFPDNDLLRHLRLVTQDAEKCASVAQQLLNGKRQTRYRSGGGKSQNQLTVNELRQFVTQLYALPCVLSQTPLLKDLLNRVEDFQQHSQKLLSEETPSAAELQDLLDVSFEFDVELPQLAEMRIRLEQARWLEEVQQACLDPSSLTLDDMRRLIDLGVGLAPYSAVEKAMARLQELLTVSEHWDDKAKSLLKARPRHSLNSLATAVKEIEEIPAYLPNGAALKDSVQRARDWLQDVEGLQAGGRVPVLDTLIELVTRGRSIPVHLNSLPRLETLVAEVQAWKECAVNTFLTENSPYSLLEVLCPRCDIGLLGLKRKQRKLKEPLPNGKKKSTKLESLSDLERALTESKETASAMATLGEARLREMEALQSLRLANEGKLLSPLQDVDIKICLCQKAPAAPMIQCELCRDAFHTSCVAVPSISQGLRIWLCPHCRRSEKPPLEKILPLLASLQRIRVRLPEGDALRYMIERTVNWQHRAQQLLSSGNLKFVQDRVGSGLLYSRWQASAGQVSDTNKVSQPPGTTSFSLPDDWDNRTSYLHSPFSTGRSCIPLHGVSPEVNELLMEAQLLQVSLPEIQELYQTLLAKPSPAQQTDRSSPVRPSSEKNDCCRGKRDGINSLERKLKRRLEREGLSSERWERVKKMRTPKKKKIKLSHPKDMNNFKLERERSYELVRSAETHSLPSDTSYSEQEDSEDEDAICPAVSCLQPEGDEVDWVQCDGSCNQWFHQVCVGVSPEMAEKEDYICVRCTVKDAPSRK

[4] = molecular target: Lysine-specific demethylase 5C (Homo sapiens, UniProt P41229); assay: Inhibition of KDM5C (2 to 1560 residues)(unknown origin) by Alphalisa assay
Lysine-specific demethylase 5C, sequence (P41229 whole entry, the tested form may be a part): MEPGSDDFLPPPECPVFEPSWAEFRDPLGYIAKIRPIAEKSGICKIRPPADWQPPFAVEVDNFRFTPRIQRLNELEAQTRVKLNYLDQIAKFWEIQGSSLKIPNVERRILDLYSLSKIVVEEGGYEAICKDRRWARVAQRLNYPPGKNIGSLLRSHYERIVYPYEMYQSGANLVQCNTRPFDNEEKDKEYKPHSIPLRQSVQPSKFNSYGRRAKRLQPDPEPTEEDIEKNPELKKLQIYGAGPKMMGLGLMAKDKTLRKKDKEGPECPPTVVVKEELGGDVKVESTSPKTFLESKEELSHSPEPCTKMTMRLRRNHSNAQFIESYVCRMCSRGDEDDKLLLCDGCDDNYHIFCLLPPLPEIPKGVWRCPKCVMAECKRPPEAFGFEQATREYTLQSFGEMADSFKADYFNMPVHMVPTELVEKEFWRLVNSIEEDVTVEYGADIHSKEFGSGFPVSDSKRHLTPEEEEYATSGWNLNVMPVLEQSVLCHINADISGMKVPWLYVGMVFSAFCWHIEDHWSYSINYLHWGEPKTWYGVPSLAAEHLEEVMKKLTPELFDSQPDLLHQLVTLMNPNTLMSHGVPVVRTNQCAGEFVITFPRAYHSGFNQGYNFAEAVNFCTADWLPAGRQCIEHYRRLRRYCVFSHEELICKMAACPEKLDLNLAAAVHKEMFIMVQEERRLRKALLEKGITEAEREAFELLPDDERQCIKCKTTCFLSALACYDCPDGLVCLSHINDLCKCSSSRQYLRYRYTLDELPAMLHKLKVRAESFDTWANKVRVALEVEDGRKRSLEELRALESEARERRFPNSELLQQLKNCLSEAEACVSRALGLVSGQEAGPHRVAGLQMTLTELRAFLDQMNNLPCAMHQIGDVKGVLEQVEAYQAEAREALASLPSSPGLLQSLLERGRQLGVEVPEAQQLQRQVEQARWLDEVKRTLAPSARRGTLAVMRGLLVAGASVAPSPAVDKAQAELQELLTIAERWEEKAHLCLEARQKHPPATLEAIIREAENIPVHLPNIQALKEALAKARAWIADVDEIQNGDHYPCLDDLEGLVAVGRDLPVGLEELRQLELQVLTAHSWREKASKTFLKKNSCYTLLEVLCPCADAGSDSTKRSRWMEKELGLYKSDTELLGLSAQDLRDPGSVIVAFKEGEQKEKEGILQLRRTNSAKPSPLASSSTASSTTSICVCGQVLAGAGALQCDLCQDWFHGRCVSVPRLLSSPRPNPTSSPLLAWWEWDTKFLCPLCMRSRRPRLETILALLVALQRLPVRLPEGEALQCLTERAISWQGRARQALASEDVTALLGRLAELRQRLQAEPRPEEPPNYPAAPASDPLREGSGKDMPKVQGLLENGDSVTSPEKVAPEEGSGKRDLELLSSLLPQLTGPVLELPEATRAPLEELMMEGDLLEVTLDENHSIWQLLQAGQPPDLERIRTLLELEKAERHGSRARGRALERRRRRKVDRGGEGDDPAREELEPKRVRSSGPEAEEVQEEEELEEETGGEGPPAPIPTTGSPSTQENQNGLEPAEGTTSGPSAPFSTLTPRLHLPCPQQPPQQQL

[5] = molecular target: Histone lysine demethylase PHF8 (Homo sapiens, UniProt Q9UPP1); assay: Inhibition of PHF8 (1 to 1024 residues)(unknown origin) by Alphalisa assay
[6] = molecular target: Lysine-specific demethylase 3B (Homo sapiens, UniProt Q7LBC6); assay: Inhibition of KDM3B (842 to 1761 residues)(unknown origin) by Alphalisa assay
[7] = molecular target: T2, Lysine-specific demethylase 4B (Homo sapiens, UniProt O94953); assay: Inhibition of KDM4B (2 to 500 residues)(unknown origin) by Alphalisa assay
T2 sequence (O94953 whole entry): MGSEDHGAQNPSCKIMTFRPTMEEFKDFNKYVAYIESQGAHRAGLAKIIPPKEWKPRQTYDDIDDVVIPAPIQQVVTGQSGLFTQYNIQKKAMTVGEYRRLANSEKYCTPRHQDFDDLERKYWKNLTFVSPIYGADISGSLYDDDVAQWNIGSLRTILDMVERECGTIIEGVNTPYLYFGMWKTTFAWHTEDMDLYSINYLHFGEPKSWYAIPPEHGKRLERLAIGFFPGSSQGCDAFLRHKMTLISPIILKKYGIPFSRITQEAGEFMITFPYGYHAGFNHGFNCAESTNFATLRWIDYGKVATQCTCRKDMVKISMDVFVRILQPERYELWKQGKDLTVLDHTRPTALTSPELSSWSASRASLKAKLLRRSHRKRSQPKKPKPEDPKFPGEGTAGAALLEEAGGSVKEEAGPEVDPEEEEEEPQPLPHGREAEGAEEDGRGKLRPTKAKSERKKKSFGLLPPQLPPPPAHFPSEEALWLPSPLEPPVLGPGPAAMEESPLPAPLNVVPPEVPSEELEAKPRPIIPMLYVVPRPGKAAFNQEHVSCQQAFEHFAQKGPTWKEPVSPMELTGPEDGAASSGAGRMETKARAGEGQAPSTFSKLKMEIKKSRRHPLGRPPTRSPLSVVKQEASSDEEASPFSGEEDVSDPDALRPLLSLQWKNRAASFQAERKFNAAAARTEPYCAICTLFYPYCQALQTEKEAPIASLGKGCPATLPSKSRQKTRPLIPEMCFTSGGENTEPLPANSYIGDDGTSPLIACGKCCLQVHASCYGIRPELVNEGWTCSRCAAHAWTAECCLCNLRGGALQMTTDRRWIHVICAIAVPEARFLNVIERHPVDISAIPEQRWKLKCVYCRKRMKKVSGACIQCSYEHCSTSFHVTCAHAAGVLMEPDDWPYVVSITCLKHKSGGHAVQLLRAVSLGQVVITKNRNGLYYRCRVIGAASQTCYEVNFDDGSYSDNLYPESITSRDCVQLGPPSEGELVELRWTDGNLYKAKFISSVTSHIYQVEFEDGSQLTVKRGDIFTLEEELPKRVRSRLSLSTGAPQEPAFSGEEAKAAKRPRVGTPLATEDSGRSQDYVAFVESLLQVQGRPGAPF

| IC50 [1] | IC50 [2] | IC50 [3] | IC50 [4] | IC50 [5] | IC50 [6] | IC50 [7] | SMILES |
| --- | --- | --- | --- | --- | --- | --- | --- |
| 7.5 µM | 6.6 µM | 9.7 µM | 15 µM | 4.2 µM | 6.9 µM | 3.8 µM | CCOC(=O)CCNc1cc(N2CCc3ccccc3CC2)nc(-c2ccccn2)n1 |
| > 50 µM | 0.053 µM | 0.17 µM | 0.55 µM | 28 µM | > 75 µM | 73 µM | O=C(O)CCNc1cc(N2CCc3ccccc3CC2)nc(-c2ccccn2)n1 |
